Laboratory results reported in patent publication US8247377B2, “Non-steroidal glucocorticoid inhibitors and their use in treating inflammation, allergy and auto-immune conditions” (Glaxo Group Limited, priority 2006, dated 2012).

System: NFκB
Experiment: NFκB agonist assay in A549 SPAP cells;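 as to average maximum asymptote in the NFkB assay: maximum inhibition of the TNFα-induced NFκB-driven signal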
Type: cell-based
Settings: Homo sapiens; for Emax: A549, A549 SPAP cells, >85% = full agonist, ≧20% = partial or full agonist, read-out: average maximum asymptote in the NFkB assay; for IC50: A549 SPAP cells, TNFα 3.2 ng/ml, read-out: pIC50 for the NFkB assay (converted)
How it was run: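 A549 cells stably carrying an ELAM/NFκB-driven SPAP reporter were pre-incubated 1 h at 37° C with compound, then stimulated with TNFα (3.2 ng/ml final) for 15 h. SPAP activity read colorimetrically with pNPP at 405 nm after ~1 h; pIC50 estimated from dose-response curves.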

SMILES	Emax [%]	IC50 [nM]
CN(CC(O)(CNC(=O)c1cnn(-c2ccc(F)cc2)c1N)C(F)(F)F)C(=O)c1c(Cl)cccc1Cl (racemic) [Example 1 (racemic), 5-Amino-N-(2-{[[(2,6-dichlorophenyl)carbonyl](methyl)amino]methyl}-3,3,3-trifluoro-2-hydroxypropyl)-1-(4-fluorophenyl)-1H-pyrazole-4-carboxamide]	> 85	< 1000
CCN(CC(O)(CNC(=O)c1cnn(-c2ccc(F)cc2)c1N)C(F)(F)F)C(=O)c1c(Cl)cccc1Cl (racemic) [Example 2 (racemic), 5-Amino-N-(2-{[[(2,6-dichlorophenyl)carbonyl](ethyl)amino]methyl}-3,3,3-trifluoro-2-hydroxypropyl)-1-(4-fluorophenyl)-1H-pyrazole-4-carboxamide]	> 85	< 1000
Nc1c(C(=O)NCC(O)(CNC(=O)c2c(Cl)cccc2Cl)C(F)(F)F)cnn1-c1ccc(F)cc1 (racemic) [Example 3 (racemic), 5-Amino-N-[2-({[(2,6-dichlorophenyl)carbonyl]amino}methyl)-3,3,3-trifluoro-2-hydroxypropyl]-1-(4-fluorophenyl)-1H-pyrazole-4-carboxamide]	≥ 20	< 1000
CCN(CC(O)(CNC(=O)c1cnn(-c2ccc(F)cc2)c1N)C(F)(F)F)C(=O)c1c(F)cccc1Cl (racemic) [Example 4 (racemic), 5-Amino-N-(2-{[[(2-chloro-6-fluorophenyl)carbonyl](ethyl)amino]methyl}-3,3,3-trifluoro-2-hydroxypropyl)-1-(4-fluorophenyl)-1H-pyrazole-4-carboxamide]	> 85	< 1000
CCN(CC(O)(CNC(=O)c1cnn(-c2ccc(F)cc2)c1N)C(F)(F)F)C(=O)c1c(F)cccc1F (racemic) [Example 5 (racemic), 5-Amino-N-(2-{[[(2,6-difluorophenyl)carbonyl](ethyl)amino]methyl}-3,3,3-trifluoro-2-hydroxypropyl)-1-(4-fluorophenyl)-1H-pyrazole-4-carboxamide]	> 85	< 1000
Nc1c(C(=O)NCC(O)(CNC(=O)c2c(F)cccc2Cl)C(F)(F)F)cnn1-c1ccc(F)cc1 (racemic) [Example 7 (racemic), 5-Amino-N-[2-({[(2-chloro-6-fluorophenyl)carbonyl]amino}methyl)-3,3,3-trifluoro-2-hydroxypropyl]-1-(4-fluorophenyl)-1H-pyrazole-4-carboxamide]	≥ 20	< 1000
CN(CC(O)(CNC(=O)c1cnn(-c2ccc(F)cc2)c1N)C(F)(F)F)C(=O)c1c(F)cccc1F (racemic) [Example 8 (racemic), 5-Amino-N-(2-{[[(2,6-difluorophenyl)carbonyl](methyl)amino]methyl}-3,3,3-trifluoro-2-hydroxypropyl)-1-(4-fluorophenyl)-1H-pyrazole-4-carboxamide]	> 85	< 1000
CN(CC(O)(CNC(=O)c1cnn(-c2ccc(F)cc2)c1N)C(F)(F)F)C(=O)c1c(F)cccc1Cl (racemic) [Example 9 (racemic), 5-Amino-N-(2-{[[(2-chloro-6-fluorophenyl)carbonyl](methyl)amino]methyl}-3,3,3-trifluoro-2-hydroxypropyl)-1-(4-fluorophenyl)-1H-pyrazole-4-carboxamide]	> 85	< 1000
CCN(CC(O)(CNC(=O)c1cnn(-c2ccc(F)cc2)c1N)C(F)(F)F)C(=O)c1ccccc1S(C)(=O)=O (racemic) [Example 10 (racemic), 5-Amino-N-{2-[(ethyl{[2-(methylsulfonyl)phenyl]carbonyl}amino)methyl]-3,3,3-trifluoro-2-hydroxypropyl}-1-(4-fluorophenyl)-1H-pyrazole-4-carboxamide]	> 85	< 1000
Nc1c(C(=O)NCC(O)(CNC(=O)c2c(Br)cccc2Br)C(F)(F)F)cnn1-c1ccc(F)cc1 (racemic) [Example 11 (racemic), 5-Amino-N-[2-({[(2,6-dibromophenyl)carbonyl]amino}methyl)-3,3,3-trifluoro-2-hydroxypropyl]-1-(4-fluorophenyl)-1H-pyrazole-4-carboxamide]	≥ 20	< 1000
Nc1c(C(=O)NCC(O)(CNC(=O)c2c(Cl)cccc2Br)C(F)(F)F)cnn1-c1ccc(F)cc1 (racemic) [Example 12 (racemic), 5-Amino-N-[2-({[(2-bromo-6-chlorophenyl)carbonyl]amino}methyl)-3,3,3-trifluoro-2-hydroxypropyl]-1-(4-fluorophenyl)-1H-pyrazole-4-carboxamide]	≥ 20	< 1000
Nc1c(C(=O)NCC(O)(CNC(=O)c2c(F)cccc2Br)C(F)(F)F)cnn1-c1ccc(F)cc1 (racemic) [Example 13 (racemic), 5-Amino-N-[2-({[(2-bromo-6-fluorophenyl)carbonyl]amino}methyl)-3,3,3-trifluoro-2-hydroxypropyl]-1-(4-fluorophenyl)-1H-pyrazole-4-carboxamide]	≥ 20	< 1000
Nc1c(C(=O)NCC(O)(CNC(=O)c2c(Cl)cccc2OC(F)F)C(F)(F)F)cnn1-c1ccc(F)cc1 (racemic) [Example 14 (racemic), 5-Amino-N-(2-{[({2-chloro-6-[(difluoromethyl)oxy]phenyl}carbonyl)amino]methyl}-3,3,3-trifluoro-2-hydroxypropyl)-1-(4-fluorophenyl)-1H-pyrazole-4-carboxamide]	≥ 20	< 1000
Nc1c(C(=O)NCC(O)(CNC(=O)c2c(C(F)(F)F)cccc2C(F)(F)F)C(F)(F)F)cnn1-c1ccc(F)cc1 (racemic) [Example 15 (racemic), 5-amino-N-{2-[({[2,6-bis(trifluoromethyl)phenyl]carbonyl}amino)methyl]-3,3,3-trifluoro-2-hydroxypropyl}-1-(4-fluorophenyl)-1H-pyrazole-4-carboxamide]	≥ 20	< 1000
CN(CC(O)(CNC(=O)c1cnn(-c2ccc(F)cc2)c1N)C(F)(F)F)C(=O)c1c(Cl)cccc1Br (racemic) [Example 16 (racemic), 5-amino-N-(2-{[[(2-bromo-6-chlorophenyl)carbonyl](methyl)amino]methyl}-3,3,3-trifluoro-2-hydroxypropyl)-1-(4-fluorophenyl)-1H-pyrazole-4-carboxamide]	> 85	< 1000
Nc1c(C(=O)NCC(O)(CN(CCF)C(=O)c2c(F)cccc2F)C(F)(F)F)cnn1-c1ccc(F)cc1 (racemic) [Example 17 (racemic), 5-amino-N-(2-{[[(2,6-difluorophenyl)carbonyl](2-fluoroethyl)amino]methyl}-3,3,3-trifluoro-2-hydroxypropyl)-1-(4-fluorophenyl)-1H-pyrazole-4-carboxamide]	> 85	< 1000
Nc1c(C(=O)NCC(O)(CN(CCF)C(=O)c2c(F)cccc2C(F)(F)F)C(F)(F)F)cnn1-c1ccc(F)cc1 (racemic) [Example 18 (racemic), 5-amino-1-(4-fluorophenyl)-N-{3,3,3-trifluoro-2-[((2-fluoroethyl){[2-fluoro-6-(trifluoromethyl)phenyl]carbonyl}amino)methyl]-2-hydroxypropyl}-1H-pyrazole-4-carboxamide]	> 85	< 1000
Nc1c(C(=O)NCC(O)(CNC(=O)c2c(F)cccc2C(F)(F)F)C(F)(F)F)cnn1-c1ccc(F)cc1 (racemic) [Example 19 (racemic), 5-amino-1-(4-fluorophenyl)-N-{3,3,3-trifluoro-2-[({[2-fluoro-6-(trifluoromethyl)phenyl]carbonyl}amino)methyl]-2-hydroxypropyl}-1H-pyrazole-4-carboxamide]	≥ 20	< 1000
CN(CC(O)(CNC(=O)c1cnn(-c2ccc(F)cc2)c1N)C(F)(F)F)C(=O)c1c(F)cccc1C(F)(F)F (racemic) [Example 21 (racemic), 5-amino-1-(4-fluorophenyl)-N-(3,3,3-trifluoro-2-{[{[2-fluoro-6-(trifluoromethyl)phenyl]carbonyl}(methyl)amino]methyl}-2-hydroxypropyl)-1H-pyrazole-4-carboxamide]	> 85	< 1000
CN(CC(O)(CNC(=O)c1cnn(-c2ccc(F)cc2)c1N)C(F)(F)F)C(=O)c1c(C(F)(F)F)cccc1C(F)(F)F (racemic) [Example 22 (racemic), 5-amino-N-(2-{[{[2,6-bis(trifluoromethyl)phenyl]carbonyl}(methyl)amino]methyl}-3,3,3-trifluoro-2-hydroxypropyl)-1-(4-fluorophenyl)-1H-pyrazole-4-carboxamide]	> 85	< 1000
CCN(CC(O)(CNC(=O)c1cnn(-c2ccc(F)cc2)c1N)C(F)(F)F)C(=O)c1c(F)cccc1C(F)(F)F (racemic) [Example 23 (racemic), 5-amino-N-{2-[(ethyl{[2-fluoro-6-(trifluoromethyl)phenyl]carbonyl}amino)methyl]-3,3,3-trifluoro-2-hydroxypropyl}-1-(4-fluorophenyl)-1H-pyrazole-4-carboxamide]	> 85	< 1000
CCN(CC(O)(CNC(=O)c1cnn(-c2ccc(F)cc2)c1N)C(F)(F)F)C(=O)c1c(Cl)cccc1Br (racemic) [Example 24 (racemic), 5-amino-N-(2-{[[(2-bromo-6-chlorophenyl)carbonyl](ethyl)amino]methyl}-3,3,3-trifluoro-2-hydroxypropyl)-1-(4-fluorophenyl)-1H-pyrazole-4-carboxamide]	> 85	< 1000
CCN(CC(O)(CNC(=O)c1cnn(-c2ccc(F)cc2)c1N)C(F)(F)F)C(=O)c1c(Cl)cccc1OC(F)F (racemic) [Example 25 (racemic), 5-amino-N-(2-{[({2-chloro-6-[(difluoromethyl)oxy]phenyl}carbonyl)(ethyl)amino]methyl}-3,3,3-trifluoro-2-hydroxypropyl)-1-(4-fluorophenyl)-1H-pyrazole-4-carboxamide]	> 85	< 1000
